According to patent US10647708B2, “Tetrahydroisoquinoline derived PRMT5-inhibitors” (CTXT PTY LTD, priority 2014, dated 2020):

Columns and labels:
[1] = tested on: symmetrical dimethylation of arginine (Histone H4R3) in cell line TE11; assay: PRMT5 Biomarker Assay (Di-Methyl Histone H4R3 ELISA); format: cell-based; settings: Homo sapiens, TE-11; TE11 cells, 72 h incubation, EpiQuik Global Di-Methyl Histone H4R3 ELISA, corrected for total protein
Procedure: Compounds of the invention may be tested for potency to inhibit symmetrical […] of arginine in the following assay:
The cell line TE11 was seeded at a density of 12,000 cells per well in 96 well tissue culture plates in DME medium and 10% foetal bovine serum, and allowed to adhere overnight under standard culture conditions (37° C., 5% CO2). Compound dilutions prepared in DMSO were added to the medium, with negative control wells reserved for treatment with DMSO only and positive controls receiving a potent PRMT5 inhibitor. The concentration of the inhibitor had been previously determined to give maximum inhibition of the methylation. After incubation for 72 h, cells were washed twice in ice-cold PBS, lysed in lysis buffer (20 mM Tris pH 7.4, 135 mM NaCl, 1.5 mM MgCl2, 1 mM EGTA, 10% glycerol and 1% Triton-X100), centrifuged at 15,000×g and the supernatants collected for subsequent analysis. The methylation level was determined using the EpiQuik™ Global Di-Methyl Histone H4R3 Quantification ELISA Kit (Epigentek, Farmingdale, N.Y.) as per the manufacturer's recommendations; in parallel the total protein amount in the lysate was quantified using a Lowry protein assay. […]

[2] = tested on: symmetrical dimethylation of arginine (Histone H4 Arginine 3) in cell line TE11; assay: Revised PRMT5 Biomarker Assay; format: cell-based; settings: Homo sapiens, TE-11; TE11 cells, 72 hours incubation, anti-Di-Methyl Histone H4 Arginine 3 immunofluorescence, plate-reader based
Procedure: Compounds of the invention may be tested for potency to inhibit symmetrical dimethylation of arginine in the following assay:
The cell line TE11 was seeded at a density of 6,000 cells per well in 96 well optical quality tissue culture plates in DME medium and 10% foetal bovine serum, and allowed to adhere for 5 hours under standard culture conditions (37 degree Celsius, 5% CO2). Compound dilutions prepared in DMSO were added to the medium, with negative control wells reserved for treatment with DMSO only and positive controls receiving a potent PRMT5 inhibitor compound at 1 μM concentration. After incubation for 72 hours, the cells were fixed with 3.7% formaldehyde in PBS for 30 minutes at room temperature, washed with phosphate buffer saline and blocked with Odyssey blocking buffer (LI-COR, Lincoln, Nebr.). Rabbit anti-Di-Methyl Histone H4 Arginine 3 specific antibody (Epigentek) in Odyssey blocking buffer was added and incubated for 14 hours at 4 degree Celsius. After washing, anti-rabbit secondary antibody labelled with Alexa647 dye (LifeTechnologies) and Hoechst 33342 (1 μg/mL, SigmaAldrich) were added for 1 hour incubation. Plates were washed and read on a PerkinElmer Envision 2103 in fluorescence intensity scanning mode (24 scans across the well area). The methylation level information was corrected for the number of cells as expressed by the Hoechst 33342 stain, converted to percent inhibition relative to controls on the same plate and the data fitted against a four-parameter logistic model to determine the 50% inhibitory concentration (IC50 plate-reader based). Alternatively, the plates were imaged on a PerkinElmer Phenix high content imaging platform. Using a Columbus image analysis pipeline, individual nuclei were located by Hoechst 33342 stain and the methylation level was calculated from the Alexa647-related intensity in the same area. The resulting mean intensity per cell was directly converted to percent inhibition as outlined above (IC50, imager based)).

[3] = molecular target: Full-length PRMT5 enzyme co-expressed with MEP50 (Homo sapiens (Human), UniProt O14744); assay: PRMT5 Biochemical Assay; settings: 200 nM peptide substrate, 1 μM S-Adenosyl methionine, 4 hours at 37° C., Transcreener EPIGEN fluorescence polarisation
Excerpt: Compounds of the invention may be tested for in vitro activity in the following assay: A histone H4 derived peptide is used as substrate (amino acid sequence: […]NH2). Full-length PRMT5 enzyme (NCBI Reference sequence NP_006100.2) was co-expressed with Hiss-MEP50 in insect cells and purified via Nickel immobilized metal affinity and gel filtration chromatography (“the enzyme”).
The […] assay reactions are run in Greiner brand black 384-well low volume plates. All reactions contained assay buffer (phosphate buffered saline, 0.01% (v/v) Tween-20, 0.01% (w/v) albumin from chicken egg white, 1 mM dithiothreitol, 200 nM peptide substrate, 1 μM S-Adenosyl methionine, and 15 ng/reaction enzyme, with the enzyme being omitted from negative control reactions. Compounds were added in a volume of 100 nL from dilution series prepared in DMSO, positive and negative control reactions receiving the same volume DMSO without compound. The plates were sealed with adhesive seals and incubated for 4 hours at 37° C. Reaction progress was measured using the Transcreener™ EPIGEN methyltransferase assay (BellBrook Labs, Madison, Wis.) as recommended by the manufacturer. To each reaction 2 μL detection mix were added, containing coupling enzymes, fluorescence polarisation tracer, and AMP antibody. […]

Chain of Full-length PRMT5 enzyme co-expressed with MEP50 (O14744 whole entry): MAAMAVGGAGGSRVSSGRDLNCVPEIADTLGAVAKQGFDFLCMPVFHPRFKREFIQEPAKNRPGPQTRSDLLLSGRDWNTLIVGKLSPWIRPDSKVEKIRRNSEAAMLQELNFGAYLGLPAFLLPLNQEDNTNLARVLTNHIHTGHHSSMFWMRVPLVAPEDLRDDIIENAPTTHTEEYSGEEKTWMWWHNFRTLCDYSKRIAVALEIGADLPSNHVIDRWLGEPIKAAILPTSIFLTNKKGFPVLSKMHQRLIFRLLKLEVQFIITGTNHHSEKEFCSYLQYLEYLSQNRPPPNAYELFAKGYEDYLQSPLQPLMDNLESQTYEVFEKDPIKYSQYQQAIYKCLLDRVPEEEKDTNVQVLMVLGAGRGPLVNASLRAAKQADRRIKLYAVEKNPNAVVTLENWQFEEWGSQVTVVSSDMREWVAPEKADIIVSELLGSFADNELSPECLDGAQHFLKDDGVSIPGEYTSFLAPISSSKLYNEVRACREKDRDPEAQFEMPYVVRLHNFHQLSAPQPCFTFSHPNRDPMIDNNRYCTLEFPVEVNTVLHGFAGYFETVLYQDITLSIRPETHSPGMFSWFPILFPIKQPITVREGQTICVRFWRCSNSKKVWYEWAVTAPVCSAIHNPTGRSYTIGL
Chain of Full-length PRMT5 enzyme co-expressed with MEP50 (Q9BQA1 whole entry partner): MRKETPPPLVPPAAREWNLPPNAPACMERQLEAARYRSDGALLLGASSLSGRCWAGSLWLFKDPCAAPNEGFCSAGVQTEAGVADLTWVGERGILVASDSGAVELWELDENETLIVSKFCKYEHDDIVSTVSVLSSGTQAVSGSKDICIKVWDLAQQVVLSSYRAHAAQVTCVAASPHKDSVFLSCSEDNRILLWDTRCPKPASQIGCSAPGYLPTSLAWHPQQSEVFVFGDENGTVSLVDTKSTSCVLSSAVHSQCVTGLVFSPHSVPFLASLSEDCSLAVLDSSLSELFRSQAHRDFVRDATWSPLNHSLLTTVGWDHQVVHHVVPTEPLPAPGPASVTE

O=C(NCCC(O)CN1CCc2ccccc2C1)c1ccc(Cl)cc1 (stereo not drawn) [Compound 1, 4-Chloro-N-(4-(3,4-dihydroisoquinolin-2(1H)-yl)-3-hydroxybutyl)benzamide]
IC50 [1]: 40.4 nM | IC50 [2]: 0.318 µM | IC50 [3]: 359 nM
